Values of other authors as cited in patent US20120053222A1, “Novel Metabolic Disease Therapy” (priority 2009, published 2012).

Test system: ob/ob mice
Conditions: injection

exendin 4
liver steatosis: diminishes liver steatosis
